From patent publication US5204329A, “Treatment of organ transplantation rejection” (Du Pont Merck Pharmaceutical Company, priority 1990, dated 1993)
Where “and” joins values, the source holds several entries; their conditions need not be identical. Equal entries are not always repeated.

Key:
[1] = system: contact sensitivity response to 2,4-dinitrofluorobenzene (DNFB); experiment: Contact Sensitivity Response to DNFB in Mice (ear swelling); assay type: in vivo, Balb/c female mice
Experimental: Balb/c female mice ([…].20 g, Charles River) were sensitized on the shaved abdomen with 25 μl of 0.5% 2,4-dinitrofluorobenzene (DNFB, Eastman Kodak Co.) in a vehicle of 4:1 acetone:olive oil on days 0 and 1. Mice were ear challenged with 20 μl of 0.2% DNFB in a vehicle of 4:1 acetone:olive oil on day 5. An identical segment of the ear was measured immediately before challenge and 24 hours later with an engineer's micrometer. Ear swelling was expressed as the difference in ear thickness before and after challenge in units of 10^-4 inches±SEM. Percent suppression was calculated as: [formula] […] Control animals received only vehicle (0.25% Methocel®). Negative controls were not sensitized on days 0 and 1 but were ear challenged on day 5. Ten mice were used per group.
Contact sensitivity to DNFB is a form of delayed-type hypersensitivity which has been extensively studied to gain an understanding of the regulation of immunologic processes (Claman et. al. (1980), Immunological Rev. 50:105-132). This reaction is mediated by T lymphocytes that become sensitized to antigen by proliferating and developing into mature effector cells (Claman et. al. (1980), Immunological Rev. 105-132). This cell-mediated immune response (T-cell mediated immunity) is central to many disease states such as organ transplantation rejection and graft versus host disease (Benacerraf and Unanue (1979), Textbook of Immunology, Williams & Wilkins Co.,; Eisen (1980), Immunology, An Introduction to Molecular and Cellular Principles of the Immune Responses, Harper & Row, Inc.; Loveland and McKenzie (1982), Inflammation, Basic Principles and Clinical Correlates, Raven Press). […]

[2] = known immunosuppressive agents; listed as AZA; cited from earlier work
[3] = system: dihydroorotate dehydrogenase; details: consequent inhibition of pyrimidine nucleotide biosynthesis; Chen et al. (1986); cited from earlier work
[4] = Table 1, 0.4 mg/kg oral, days 0-6
[5] = Table 1, 2.0 mg/kg oral, days 0-6
[6] = Table 1, 10.0 mg/kg oral, days 0-6
[7] = Table 1, 20.0 mg/kg oral, days 0-6
[8] = Table 4, dosing only day 0 and 1, 20.0 mg/kg

For `Cn1cnc([N+](=O)[O-])c1Sc1ncnc2nc[nH]c12` [Azathioprine, reference compound], the “Azathioprine ED50” value ([1]; Table 3, Ex. 28 at 0 mg/kg) was 38.0 mg/kg, the “Azathioprine ED50” value ([1]; Table 3, with Ex. 28 at 0.1 mg/kg) was 42.0 mg/kg and the “Azathioprine ED50” value ([1]; Table 3, with Ex. 28 at 0.3 mg/kg) was 43.0 mg/kg. For the same molecule, the “Azathioprine ED50” value ([1]; Table 3, with Ex. 28 at 1.0 mg/kg) was 7.5 mg/kg, the “Azathioprine ED50” value ([1]; Table 3, with Ex. 28 at 3.0 mg/kg) was under 6.3 mg/kg and the “Azathioprine ED50” value ([1]; Table 3, with Ex. 28 at 10.0 mg/kg) was under 6.3 mg/kg. For the same molecule, the “% Suppression of Ear Swelling” value ([1]; agent alone, 6.3 mg/kg, days 0-6) was 2.5 ± 4.2%, the “% Suppression of Ear Swelling” value ([1]; agent alone, 12.5 mg/kg, days 0-6) was 15.9 ± 3.3% and the “% Suppression of Ear Swelling” value ([1]; agent alone, 12.5 mg/kg, days 0-6, listed as azathioprine) was 15.9%. The “% Suppression of Ear Swelling” value ([1]; agent alone, 25.0 mg/kg, days 0-6) was 29.7 ± 4.1%, the “% Suppression of Ear Swelling” value ([1]; agent alone, 50.0 mg/kg, days 0-6) was 72.1 ± 3.1% and the “% Suppression of Ear Swelling” value ([1]; agent alone, 100.0 mg/kg, days 0-6) was 97.7 ± 1.6%. For the same molecule, the “clinically observed toxicities / side effects” value [2] was “nephrotoxicity and hepatoxicity”.

For `Cc1c(-c2ccc(-c3ccccc3F)cc2)nc2ccc(F)cc2c1C(=O)O` [Example 28, 2-(2'-fluoro-1,1'-biphenyl-4-yl)-6-fluoro-3-methyl-4-quinoline carboxylic acid], the “unique mechanism of action: inhibition of dihydroorotate dehydrogenase” value [3] is listed as “inhibition of dihydroorotate dehydrogenase”, the ED50 ([1]; Mus musculus, Table 1, agent alone, oral, days 0-6) is listed as 0.95 mg/kg and the “% Suppression” value [1, 4] is listed as 30.20%. The “Ear Swelling (units ± SEM), increase in ear thickness from day 5 to day 6” value (“Ear Swelling (units ± SEM), increase” for short) [1, 4] was 51.95 ± 2.33 10^-4 inches, the “% Suppression” value [1, 5] was 66.10% and the “Ear Swelling (units ± SEM), increase” value [1, 5] was 25.61 ± 3.39 10^-4 inches. For the same molecule, the “% Suppression” value [1, 6] was 92.28%, the “Ear Swelling (units ± SEM), increase” value [1, 6] was 6.40 ± 1.09 10^-4 inches and the “% Suppression” value [1, 7] was 94.53%. For the same molecule, the “Ear Swelling (units ± SEM), increase” value [1, 7] was 4.75 ± 1.20 10^-4 inches, the “Ex. 28 ED50” value ([1]; Table 2, with cyclosporin A 6.3 mg/kg) was 1.0 mg/kg and the “Ex. 28 ED50” value ([1]; Table 2, with cyclosporin A 12.5 mg/kg) was 0.8 mg/kg. The “Ex. 28 ED50” value ([1]; Table 2, with cyclosporin A 25.0 mg/kg) was 0.7 mg/kg, the “Ex. 28 ED50” value ([1]; Table 2, with cyclosporin A 30.0 mg/kg) was 0.4 mg/kg and the “Ex. 28 ED50” value ([1]; Table 2, with cyclosporin A 50.0 mg/kg) was 0.4 mg/kg. For the same molecule, the “Ex. 28 ED50” value ([1]; Table 2, with cyclosporin A 70.0 mg/kg) was under 0.3 mg/kg, the “Ex. 28 ED50” value ([1]; Table 3, with azathioprine 6.3 mg/kg) was 1.3 mg/kg and the “Ex. 28 ED50” value ([1]; Table 3, with azathioprine 12.5 mg/kg) was 0.8 mg/kg. The “Ex. 28 ED50” value ([1]; Table 3, with azathioprine 25.0 mg/kg) was 0.7 mg/kg, the “Ex. 28 ED50” value ([1]; Table 3, with azathioprine 50.0 mg/kg) was under 0.1 mg/kg and the “Ex. 28 ED50” value ([1]; Table 3, with azathioprine 100.0 mg/kg) was under 0.1 mg/kg. The “% Suppression” value [1, 8] was 14.4%, the “ΔEar Swelling” value [1, 8] was 59.6 ± 2.5 and the “Ex. 28 ED50” value ([1]; Tables 2 and 3, cyclosporin A / azathioprine at 0 mg/kg) was 1.4 mg/kg. For the same molecule, the “% Suppression of Ear Swelling” value ([1]; agent alone, 0.1 mg/kg, days 0-6, listed as Ex. 28, 0.1 mg/kg) was 6.5 ± 2.9% and 6.5 ± 2.8%, the “% Suppression of Ear Swelling” value ([1]; agent alone, 0.3 mg/kg, days 0-6) was 7.3 ± 2.4% and the “% Suppression of Ear Swelling” value ([1]; agent alone, 1.0 mg/kg, days 0-6) was 31.4%. For the same molecule, the “% Suppression of Ear Swelling” value ([1]; agent alone, 1.0 mg/kg, days 0-6, listed as Ex. 28, 1 mg/kg) was 31.4 ± 3.3%, the “% Suppression of Ear Swelling” value ([1]; agent alone, 3.0 mg/kg, days 0-6) was 91.9 ± 2.3% and the “% Suppression of Ear Swelling” value ([1]; agent alone, 10.0 mg/kg, days 0-6) was 93.9 ± 2.4%.
